# Assays:
# IL-4R alpha protein = IL-4R alpha protein on lung cells by flow cytometry, rechallenge model; type: in vivo, mouse
# Description: The rechallenge model of allergic inflammation includes a second series of nebulized OVA challenges on days 66 and 67 in addition to the sensitization and challenge steps of the acute model. This model allows for the evaluation of the target's role in a recall response, as opposed to its role as an initiator molecule. In the rechallenge model, mice were treated with 10, 100 or 500 μg/kg of either ISIS 231894 or the mismatch control oligonucleotide on days 52, 54, 56, 59 and 61, subsequent to the onset and resolution of the OVA-induced acute inflammatory response, delivered by nose only inhalation. The study endpoints were similar to those in the acute model, and included Penh response (i.e. AHR reduction), inflammatory cells and cytokines in BAL (determined by ELISA), mucus accumulation (as determined by periodic acid-Schiff base [PAS] staining in lungs), lung histology and IL-4R alpha protein reduction in lung epithelial and inflammatory cells (as determined by flow cytometry). The results are shown below in Tables 5 and 6.
# OVA sensitized mice = test: Allergic rhinitis mouse model, intranasal administration; type: in vivo
# Description: In a mouse model of allergic rhinitis, animals were sensitized intraperitoneally with alum-precipitated OVA on days 1, 5, 10 and 15. OVA diluted with saline was administered intranasally (25 μL of 500 μg OVA in each nare) daily, on days 18-22, 25-29, and 32-35. ISIS 231894 and budesonide were administered intranasally, with budesonide administration one hour before each intranasal OVA challenge. ISIS 231894 was administered on days 11, 13, 15, and one hour before each intranasal OVA challenge. Endpoints were evaluated on day 36 and included nasal mucus accumulation (nasal histopathology) nasal eosinophilia, neutrophilia (by nasal lavage analysis and microscopic eosinophil counts in epithelial tissue) and allergic symptoms (numbers of sneezes and nose-rubs observed over a fixed time period).
# mouse IL-4R alpha RNA = test: Antisense inhibition of mouse IL-4R alpha mRNA in b.END cells, real-time PCR; type: cell-based; conditions: 24 hours
# Description: The mouse brain endothelial cell line b.END was obtained from Dr. Werner Risau at the Max Plank Institute (Bad Nauheim, Germany). b.END cells were routinely cultured in DMEM, high glucose (Invitrogen Life Technologies, Carlsbad, Calif.) supplemented with 10% fetal bovine serum (Invitrogen Life Technologies, Carlsbad, Calif.). Cells were routinely passaged by trypsinization and dilution when they reached approximately 90% confluence. Cells were seeded into 96-well plates (Falcon-Primaria #353872, BD Biosciences, Bedford, Mass.) at a density of approximately 3000 cells/well for use in oligomeric compound transfection experiments.
# When cells reach appropriate confluency, they are treated with oligonucleotide using Lipofectin™ as described. When cells reached 65-75% confluency, they were treated with oligonucleotide. Oligonucleotide was mixed with LIPOFECTIN™ Invitrogen Life Technologies, Carlsbad, Calif.) in Opti-MEM™-1 reduced serum medium (Invitrogen Life Technologies, Carlsbad, Calif.) to achieve the desired concentration of oligonucleotide and a LIPOFECTIN™ concentration of 2.5 or 3 […] oligonucleotide. This transfection mixture was incubated at room temperature for approximately 0.5 hours. For cells grown in 96-well plates, wells were washed once with 100 μL OPTI-MEM™-1 and then treated with 130 μL of the transfection mixture. Cells grown in 24-well plates or other standard tissue culture plates are treated similarly, using appropriate volumes of medium and oligonucleotide. Cells are treated and data are obtained in duplicate or triplicate. After approximately 4-7 hours of treatment at 37° C., the medium containing the transfection mixture was replaced with fresh culture medium. Cells were harvested 16-24 hours after oligonucleotide treatment.
# Quantitation of IL-4R alpha mRNA levels was accomplished by real-time quantitative PCR using the ABI PRISM™ 7600, 7700, or 7900 Sequence Detection System (PE-Applied Biosystems, Foster City, Calif.) according to manufacturer's instructions.
# Prior to quantitative PCR analysis, primer-probe sets specific to the target gene being measured were evaluated for their ability to be “multiplexed” with a GAPDH amplification reaction. After isolation the RNA is subjected to sequential reverse transcriptase (RT) reaction and real-time PCR, both of which are performed in the same well. RT and PCR reagents were obtained from Invitrogen Life Technologies (Carlsbad, Calif.). […] The RT reaction was carried out by incubation for 30 minutes at 48° C. Following a 10 minute incubation at 95° C. to activate the PLATINUM® Taq, 40 cycles of a two-step PCR protocol were carried out: 95° C. for 15 seconds (denaturation) followed by 60° C. for 1.5 minutes (annealing/extension).
# Gene target quantities obtained by RT, real-time PCR were normalized using either the expression level of GAPDH, a gene whose expression is constant, or by quantifying total RNA using RiboGreen™ (Molecular Probes, Inc. Eugene, Oreg.). GAPDH expression was quantified by RT, real-time PCR, by being run simultaneously with the target, multiplexing, or separately. Total RNA was quantified using RiboGreen™ RNA quantification reagent (Molecular Probes, Inc. Eugene, Oreg.).
# Probes and primers for use in real-time PCR were designed to hybridize to target-specific sequences. The target-specific PCR probes have FAM covalently linked to the 5′ end and TAMRA or MGB covalently linked to the 3′ end, where FAM is the fluorescent dye and TAMRA or MGB is the quencher dye.
# A series of oligomeric compounds was designed to target different regions of mouse IL-4R alpha RNA, using SEQ ID NO: 5. All compounds are chimeric oligonucleotides (“gapmers”) 20 nucleotides in length, composed of a central “gap” region consisting of ten 2′-deoxynucleotides, which is flanked on both sides (5′ and 3′) by five-nucleotide “wings”. The wings are composed of 2′-O-(2-methoxyethyl) nucleotides, also known as 2′-MOE nucleotides. […]
# [1] = Table 11, 0.01 mg/kg intranasal
substance,measurement,setting,value
"ISIS 231894: lead antisense oligonucleotide targeted to mouse IL-4R alpha; CCGCTGTTCTCAGGTGACAT; SEQ ID NO: 24; 2'-MOE gapmer, phosphorothioate (all phosphorothioate, sugars by position and methylation of C not given here; 2'-MOE gapmer)","target protein (IL-4R alpha), Dendritic cells",IL-4R alpha protein; 10 μg/kg inhaled,25 % positive cells
same,"target protein (IL-4R alpha), Macrophages/Eosinophils",IL-4R alpha protein; 10 μg/kg inhaled,18 % positive cells
same,"target protein (IL-4R alpha), Dendritic cells",IL-4R alpha protein; 100 μg/kg inhaled,18 % positive cells
same,"target protein (IL-4R alpha), Macrophages/Eosinophils",IL-4R alpha protein; 100 μg/kg inhaled,20 % positive cells
same,"target protein (IL-4R alpha), Dendritic cells",IL-4R alpha protein; 500 μg/kg inhaled,10 % positive cells
same,"target protein (IL-4R alpha), Macrophages/Eosinophils",IL-4R alpha protein; 500 μg/kg inhaled,17 % positive cells
same,"IL-4R alpha surface expression on lung eosinophils, macrophages and dendritic cells, in words",IL-4R alpha protein; flow cytometry,reduced the amount of IL-4R alpha surface expression
same,% Nasal lavage eosinophils,OVA sensitized mice; [1],12%
same,% Nasal lavage neutrophils,OVA sensitized mice; [1],16%
same,Nasal rubs,OVA sensitized mice; [1],0.8 per 5 min
same,Sneezes,OVA sensitized mice; [1],2.5 per 5 min
same,Tissue eosinophils,OVA sensitized mice; [1],438 per mm^2
same,% Nasal lavage eosinophils,"OVA sensitized mice; Table 11, 0.1 mg/kg intranasal",2%
same,% Nasal lavage neutrophils,"OVA sensitized mice; Table 11, 0.1 mg/kg intranasal",5%
same,Nasal rubs,"OVA sensitized mice; Table 11, 0.1 mg/kg intranasal",0.3 per 5 min
same,Sneezes,"OVA sensitized mice; Table 11, 0.1 mg/kg intranasal",1.9 per 5 min
same,Tissue eosinophils,"OVA sensitized mice; Table 11, 0.1 mg/kg intranasal",240 per mm^2
same,% Nasal lavage eosinophils,"OVA sensitized mice; Table 11, 1 mg/kg intranasal",5%
same,% Nasal lavage neutrophils,"OVA sensitized mice; Table 11, 1 mg/kg intranasal",13%
same,Nasal rubs,"OVA sensitized mice; Table 11, 1 mg/kg intranasal",0.5 per 5 min
same,Sneezes,"OVA sensitized mice; Table 11, 1 mg/kg intranasal",1.0 per 5 min
same,Tissue eosinophils,"OVA sensitized mice; Table 11, 1 mg/kg intranasal",101 per mm^2
same,% Nasal lavage eosinophils,"OVA sensitized mice; Table 11, 10 mg/kg intranasal",9%
same,% Nasal lavage neutrophils,"OVA sensitized mice; Table 11, 10 mg/kg intranasal",14%
same,Nasal rubs,"OVA sensitized mice; Table 11, 10 mg/kg intranasal",1.1 per 5 min
same,Sneezes,"OVA sensitized mice; Table 11, 10 mg/kg intranasal",4.8 per 5 min
same,Tissue eosinophils,"OVA sensitized mice; Table 11, 10 mg/kg intranasal",298 per mm^2
same,"nasal eosinophilia, neutrophilia and allergic symptoms (sneezes and nose rubs), in words","OVA sensitized mice; allergic rhinitis model, intranasal, alone and in combination","reduce nasal eosinophilia, neutrophilia and allergic symptoms"
same,IL-4R alpha mRNA,mouse IL-4R alpha RNA; 1 nM,100 % of untreated control
same,IL-4R alpha mRNA,mouse IL-4R alpha RNA; 5 nM,55 % of untreated control
same,IL-4R alpha mRNA,mouse IL-4R alpha RNA; 10 nM,41 % of untreated control
same,IL-4R alpha mRNA,mouse IL-4R alpha RNA; 25 nM,35 % of untreated control
same,IL-4R alpha mRNA,mouse IL-4R alpha RNA; 50 nM,20 % of untreated control
same,IL-4R alpha mRNA,mouse IL-4R alpha RNA; 100 nM,20 % of untreated control
same,mouse IL-4R alpha mRNA reduction (in words),mouse IL-4R alpha RNA; compared to mismatch control,dose-dependent mouse IL-4R alpha mRNA reduction

# — patent US20100056606A1, “Combination therapy using budesonide and antisense oligonucleotide targeted to IL4-receptor alpha” (ISIS Pharmaceuticals, Inc., priority 2005, published 2010)
